Results reported in US12390483B2, “Compounds and methods for treating neurological and cardiovascular conditions” (Astrocyte Pharmaceuticals, Inc., priority 2016, dated 2025).

Key:
[1] = test system: GFAP expression; experiment: Traumatic brain injury (TBI) in mice, Western blot analysis for GFAP; format: in vivo; conditions: summary statement
Experimental: Animals and traumatic brain injury (TBI): TBI was performed with a controlled closed skull injury model as described in […] al. 2012 (J. Neurotrauma 30, 55-66). Following the method described therein, a pneumatic impact device was used to generate a moderate TBI leaving the skull and dura matter intact. To achieve this, C57BL/6 mice were anesthetized with isoflurane (3% induction, 1% maintenance) in 100% oxygen. A body temperature of 37° C. was maintained using a temperature-controlled heated surgical table. A small midline incision was made on the scalp using aseptic surgical techniques. A 5 mm stainless steel disc was positioned on the skull and fixed using superglue on the right parietal bone between bregma and lamda over the somatosensory cortex. The mouse was then positioned on a stage directly under the pneumatic impact tip. […] Scalp incisions were closed using 4-0 nylon braided suture and antibiotic ointment applied to the incision. Mice were placed in a Thermo-Intensive Care Unit (Braintree Scientific model FV-1; 37° C.; 27% 02) and monitored until fully awake and moving freely. […] Western Blot Analysis for GFAP: At selected survival times, mice were anesthetized under isoflurane and sacrificed. The brain was removed and placed on ice for dissection into impacted and non-impacted brain hemispheres. […] The homogenate was transferred to a 2 mL tube and centrifuged at 1000 g for 10 minutes at 4° C. and the supernatant was collected and analyzed. Protein concentration was determined by the BCA assay using a 1:50 dilution. 100 μg of protein was removed as an aliquot for each sample and Laemmli buffer containing β-mercaptoethanol added and the sample placed in a heat block for 3 minutes at 95° C. Samples were loaded on a 12% gel and ran at 80 V for 20 minutes followed by 40 minutes at 130 V. Samples were transferred to nitrocellulose membrane at 100 V for 1 hour. The membrane was blocked with 5% milk in TBS-T for 30 minutes. GFAP (1:1000-Imgenex IMG-5083-A) was added and placed at 4° C. overnight. The membrane was washed with TBS-T three times for 10 minutes. Secondary antibody for GFAP (Donkey anti-rabbit HRP conjugated (ImmunoJackson Laboratories; 711-035-152; 1:20000) was applied at room temperature for 1 hour. The membranes were washed with TBS-T for 15 minutes (3 times) and developed using the Western Lightning Plus-ECL kit (PerkinElmer, Inc.) following manufacturer's directions.

[2] = test system: photothrombosis-induced stroke infarctions; experiment: Photothrombosis-induced stroke in mice, TTC-stained brain infarction size; format: in vivo
Experimental: Photothrombosis-induced Stroke: Photothrombosis was performed as described in Zheng et al 2010 (PloS One 5 (12): e14401). In brief, Rose Bengal is a fluorescent dye that when injected into the vasculature and excited, generates singlet oxygen that damages the endothelial wall and induces a local thrombosis (clot). Using this technique, mice were given a 0.1 mL tail-vein injection of sterilized Rose Bengal (RB, Sigma, U.S.A.) in artificial cerebral spinal fluid (aCSF). The RB concentration was 20 mg/mL. A cortical region was centered in the imaging field and illuminated with a green laser (543 nm, 5 mW) using a 0.8-NA 40× water-immersion objective (Nikon, Tokyo). The clot formation was monitored in real time until the targeted vessel or downstream capillaries were firmly occluded. Stable clots were subsequently identified by a non-fluorescent vessel segmentation ending with highly fluorescent regions. […] Treatments, MRS4322 (0.16 mg/kg; 0.5 μmol/kg) or MRS2365 (0.24 mg/kg; 0.5 μmol/kg) were introduced via intraperitoneal injections (i.p.). […] Animals and Photothrombosis-induced Stroke: Stroke was performed as described in Zheng et al 2010 (PloS One 5 (12): e14401). Female C57Bl/6 mice (4-6 months) were used in this study. From the methods of this manuscript: Mice were anesthetized at 3% isoflurane with 100% oxygen and subsequently maintained at 1% isoflurane through a nosecone. Depth of anesthesia was monitored and regulated according to vital signs, pinch withdrawal and eye blinks. Body temperature was maintained at 37° C. by a feedback-controlled heating pad (Gaymar T/Pump). Vital signs including oxygen saturation, respiratory rate, and heart rate were continuously monitored by using the MouseOx system (STARR Life Sciences). The hair on each mouse's head was trimmed and a small incision was made in the scalp to expose the skull. A custom-made stainless steel plate was glued to the skull with VetBond Tissue Adhesive (3M, St Paul, MN). A cranial thinned-skull imaging window was created over the right primary somatosensory cortex (˜1.5 mm posterior to Bregma and 2 mm lateral from midline) depending on the experiment. In brief, a large region of the skull was first thinned with the electric drill and then further thinned with a surgical blade. The final thickness of the thinned skull was approximately 50 μm. After the cranial imaging window was created, mice were transferred to microscope stage and used for photothrombosis or imaging experiments. For the repeat imaging experiments, the plate was carefully detached from the skull and the scalp was sutured (Ethicon 6-0 sild suture). After each experiment, the mice were either returned to cages until the next timepoint or sacrificed. All procedures were approved by the Institutional Animal Care and Use Committee (IACUC) at University of Texas Health Science Center at San Antonio. Thirty minutes following stroke or sham (uninjured), mice were treated with either vehicle (saline) or drugs (MRS4322, MRS2365, MRS5698 or Cl-IBMECA). Post photothrombotic infarction evaluation. The size of cerebral infarcts was evaluated using 2,3,5-Triphenyltetrazolium chloride (TTC) staining as described in Zheng et al 2010 (PloS One 5 (12): e14401). In brief, RB-induced lesions in brain slices were stained with TTC. TTC is a colorless dye that stains healthy brain tissue red when reduced by the mitochondrial enzyme succinyl dehydrogenase (Bederson J B et al., 1986). The absence of staining in necrotic tissue is then used to define the area of a brain infarction. Mice were sacrificed by cervical dislocation, their brains removed and then placed in ice cold HBSS for 3 minutes. […] The sections were fixed in 10% buffered formaldehyde solution overnight at 4° C. Slices were imaged on a flatbed scanner (HP scanjet 8300) for analysis of the lesion size at 1200 dpi. Photothrombosis-induced Stroke: Photothrombosis was performed as described in Zheng et al. 2010 (PloS One 5 (12): e14401). […]

[3] = molecular target: T1, Human A3 (Homo sapiens, UniProt P0DMS8); conditions: J. Med. Chem. 2002 45:4471-4484 (Gao et al.); cited from earlier work
T1 sequence (P0DMS8 1-318): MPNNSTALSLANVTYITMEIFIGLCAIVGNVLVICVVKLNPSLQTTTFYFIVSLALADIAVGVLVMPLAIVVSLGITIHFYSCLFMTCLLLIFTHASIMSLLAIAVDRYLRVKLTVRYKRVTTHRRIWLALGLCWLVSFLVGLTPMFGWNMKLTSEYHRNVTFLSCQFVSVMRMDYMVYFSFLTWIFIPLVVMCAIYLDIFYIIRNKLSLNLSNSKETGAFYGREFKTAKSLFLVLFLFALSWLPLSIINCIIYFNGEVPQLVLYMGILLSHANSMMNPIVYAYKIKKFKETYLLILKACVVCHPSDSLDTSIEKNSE

[4] = mouse plasma and tissue; Tosh et al. Purinergic Signalling (2015) 11:371-387; cited from earlier work

## CNC(=O)[C@H]1O[C@@H](n2cnc3c(NCc4cccc(I)c4)nc(Cl)nc32)[C@H](O)[C@@H]1O [Cl-IB-MECA, 2-Chloro-N^6-(3-iodobenzyl)-adenosine-5′-N-methyluronamide, reference compound]
[1]
  efficacy in the mouse TBI model: weakly active

## CCCOC(=O)c1c(-c2ccccc2)nc(CC)c(C(=O)SCC)c1CCC [MRS1523, reference compound]
[2]; MRS1523 2 mg/kg i.p. at 0 and 2 hours
  effect of antagonist on neuroprotection of MRS4322 and MRS2365 treatments after stroke: inhibits neuroprotection

## Nc1nc(Cl)nc2c1ncn2[C@H]1[C@H](O)[C@H](O)[C@]2(CO)C[C@H]12 [MRS1873]
[3]
  EC50: 0.803 µM
[2]; Example 7: mice, 100 ul of 100 uM i.p. within 30 minutes of clot formation, 24 hours after stroke, versus vehicle
  size of the brain infarction (TTC staining): significantly reduced

## CNC(=O)[C@@]12C[C@@H]1[C@@H](n1cnc3c(NCc4cccc(Cl)c4)nc(C#Cc4ccc(F)c(F)c4)nc31)[C@H](O)[C@@H]2O [MRS5698, reference compound]
[4]
  protein binding reported in the literature: 99.88%
[2]; MRS1523 2 mg/kg i.p. at 0 and 2 hours, treatment within 30 minutes of clot formation, 24 hours
  size of brain infarctions in mice pretreated with the A3 receptor antagonist MRS1523: not reduced
